Results from the supplement of paper PMC11451515.

Tests used:
Settings in all cases: 48 h
[1] = test system: SEM cells; test: cell viability relative to DMSO control; higher = less cytotoxic
Summary of the method: (§1)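 NOMO1 or SEM cells were plated at 500 cells/well and P12-Ichikawa cells at 1000 cells/well in 1536-well plates (5 μl), after each leukemia line had been adapted for at least four passages in each medium. Pin dosing delivered library compounds in DMSO at 11 threefold concentrations, 47 μM to 0.79 nM. CellTiter-Glo One luminescence was read after 48 h at 37°C. Viability is reported as a per-plate percentage of DMSO wells, with cell-free wells as background.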

[2] = test system: NOMO1; test: as above
Summary of the method: as §1

[3] = test system: P12-Ichikawa; test: as above
Summary of the method: as §1

[4] = test system: NOMO1; test: AUC of viability dose-response curve (% viability x log10 dose units); higher = less sensitive
Summary of the method: (§2)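 In 1536-well plates, leukemia cells adapted to each medium (500 or 1000 cells/well) were exposed for 48 h at 37°C to library compounds in DMSO across 11 threefold doses, 47 μM down to 0.79 nM. Viability was read by CellTiter-Glo One luminescence and normalised per plate to DMSO and cell-free wells. A four-parameter log-logistic fit over log10 doses was integrated by trapezoidal rule. This yielded the area under the curve, with over-full-viability curves scaled and quality-control failures dropped.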

[5] = test system: P12-Ichikawa; test: as above
Summary of the method: as §2

[6] = test system: SEM cells; test: as above
Summary of the method: as §2

OCCN1CCN(CCCN2c3ccccc3Sc3ccc(C(F)(F)F)cc32)CC1
cell viability [%]
Settings | [1] | [2] | [3]
HPLM + 10% dialyzed FBS, 0.000781 µM | 85.3 | 123 | 95.4
HPLM + 10% dialyzed FBS, 0.00234 µM | 90 | 121 | 98.3
HPLM + 10% dialyzed FBS, 0.00702 µM | 80.6 | 107 | 103
HPLM + 10% dialyzed FBS, 0.0211 µM | 34.4 | 122 | 109
HPLM + 10% dialyzed FBS, 0.0632 µM | 104 | 111 | 110
HPLM + 10% dialyzed FBS, 0.19 µM | 110 | 106 | 108
HPLM + 10% dialyzed FBS, 0.569 µM | 7.1 | 98.8 | 73.3
HPLM + 10% dialyzed FBS, 1.71 µM | 37.4 | 122 | 113
HPLM + 10% dialyzed FBS, 5.12 µM | 88.7 | 73.2 | 74.2
HPLM + 10% dialyzed FBS, 15.4 µM | 49.5 | 43 | 18.2
HPLM + 10% dialyzed FBS, 46.1 µM | 47.8 | 27.7 | 8.87
RPMI 5 mM glucose + 10% FBS, 0.000781 µM | 74.8 | 104 | 107
RPMI 5 mM glucose + 10% FBS, 0.00234 µM | 89.4 | 104 | 108
RPMI 5 mM glucose + 10% FBS, 0.00702 µM | 85.7 | 100 | 109
RPMI 5 mM glucose + 10% FBS, 0.0211 µM | 36 | 121 | 123
RPMI 5 mM glucose + 10% FBS, 0.0632 µM | 96.2 | 97.5 | 109
RPMI 5 mM glucose + 10% FBS, 0.19 µM | 122 | 110 | 114
RPMI 5 mM glucose + 10% FBS, 0.569 µM | 7.38 | 112 | 87.8
RPMI 5 mM glucose + 10% FBS, 1.71 µM | 21.4 | 105 | 107
RPMI 5 mM glucose + 10% FBS, 5.12 µM | 102 | 104 | 74.2
RPMI 5 mM glucose + 10% FBS, 15.4 µM | 47.6 | 25.7 | 36.6
RPMI 5 mM glucose + 10% FBS, 46.1 µM | 34.1 | 21.3 | 9.41
RPMI 5 mM glucose + 10% dialyzed FBS, 0.000781 µM | 76.3 | 91.6 | 99.3
RPMI 5 mM glucose + 10% dialyzed FBS, 0.00234 µM | 87.2 | 102 | 99.7
RPMI 5 mM glucose + 10% dialyzed FBS, 0.00702 µM | 86.3 | 108 | 111
RPMI 5 mM glucose + 10% dialyzed FBS, 0.0211 µM | 74.5 | 105 | 110
RPMI 5 mM glucose + 10% dialyzed FBS, 0.0632 µM | 84 | 105 | 107
RPMI 5 mM glucose + 10% dialyzed FBS, 0.19 µM | 115 | 109 | 107
RPMI 5 mM glucose + 10% dialyzed FBS, 0.569 µM | 13.7 | 110 | 96.4
RPMI 5 mM glucose + 10% dialyzed FBS, 1.71 µM | 31.1 | 97.3 | 104
RPMI 5 mM glucose + 10% dialyzed FBS, 5.12 µM | 92.3 | 109 | 78.7
RPMI 5 mM glucose + 10% dialyzed FBS, 15.4 µM | 46.3 | 93.9 | 59.8
RPMI 5 mM glucose + 10% dialyzed FBS, 46.1 µM | 35.9 | 24.8 | 12.7

AUC of viability dose-response curve
Settings | HPLM + 10% dialyzed FBS | RPMI 5 mM glucose + 10% FBS | RPMI 5 mM glucose + 10% dialyzed FBS
[4] | 411 | 420 | 454
[5] | 403 | 402 | 418

CO[C@H]1O[C@@H]2O[C@@]3(C)CC[C@H]4[C@H](C)CC[C@@H]([C@H]1C)[C@@]24OO3
AUC of viability dose-response curve
Settings | [4] | [5] | [6]
HPLM + 10% dialyzed FBS | 436 | 433 | 429
RPMI 5 mM glucose + 10% FBS | 433 | 430 | 456
RPMI 5 mM glucose + 10% dialyzed FBS | 405 | 417 | 451

Cc1ccc(C(N)=O)cc1Nc1nccc(-c2cn(C(C)C)c3cnccc23)n1
cell viability [%], [1]
Settings | HPLM + 10% dialyzed FBS | RPMI 5 mM glucose + 10% dialyzed FBS
0.000781 µM | 99 | 109
0.00234 µM | 118 | 128
0.00702 µM | 113 | 124
0.0211 µM | 111 | 113
0.0632 µM | 100 | 113
0.19 µM | 88 | 87.3
0.569 µM | 75 | 64.1
1.71 µM | 80 | 71
5.12 µM | 61.4 | 52.5
15.4 µM | 29 | 34.8
46.1 µM | 16.7 | 12.7

AUC of viability dose-response curve
Settings | HPLM + 10% dialyzed FBS | RPMI 5 mM glucose + 10% FBS | RPMI 5 mM glucose + 10% dialyzed FBS
[5] | 463 | 459 | 451
[6] | 356 | 342 | 326
